The text below walks through data of PubChem BioAssay (NCI).

Where “and” joins values, the source holds several entries; their conditions need not be identical. Identical values can stand only once.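 Step 1: Grow cells in 96-well plates. Step 2: Expose to compound for 48 hours at 5 concentrations. Step 3: Interpolate endpoints linearly; if unreached, use highest concentration. GI50 marks 50% less growth. TGI marks complete inhibition of growth.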 Where a SMILES comes first, the peptide text is derived from it. The star is where a group is joined. Trt = c1ccc(C(c2ccccc2)(c2ccccc2)*)cc1; Cbz = O=C(OCc1ccccc1)*

Holding throughout (experiment): NCI tumour cell line growth inhibition, 48 h
In test [1] the test system is OVCAR-3 ovarian.
For test [2], the system named is KM12 colon.
The subject of test [3] is HCT-15 colon.
Test [4] relates to UO-31 renal.
The subject of test [5] is HCT-116 colon.
Test [6] has as its system TK-10 renal.
Test [7] relates to HOP-62 NSCLC.
Test [8] concerns CCRF-CEM leukemia.
Test [9] has as its system IGROV1 ovarian.

With `Cc1ccc(CNc2ccc(Br)cc2)cc1`, the TGI in test [1] was more than 100 µM; in test [2], more than 100 µM; in [3], 66.1 µM; in test [4], 49.2 µM; in test [5], more than 100 µM; in test [6], more than 100 µM. For the same compound, the TGI in test [7] is more than 100 µM; in [8] it was 78.4 µM.
With `O=S1(=O)N2CN3CN(C2)CN1C3`, the TGI in test [2] was 306 µM; in test [3], 53.4 µM and 67.2 µM; in test [4], 410 µM; in test [5], 44.4 µM and 76.6 µM; in [6], 692 µM; in [9] it was 712 µM. The TGI was 624 µM in test [7]; > 31.6 µM and 110 µM in test [8]. Moreover, the GI50 in test [5] was 26.6 µM.
In the case of `CCCCC1=CSC(c2ccccc2)=C(c2ccccc2)S1`, the TGI in [1], in test [2], in test [3], in test [4], in test [5] and in test [6] was more than 100 µM in each case. Also, the TGI in [9] and in test [8] was more than 100 µM throughout.
Regarding `O=[N+]([O-])c1ccc(C2=Nc3ccccc3S(=O)C(c3ccccc3)C2)cc1` (stereo unspecified), the TGI is 37.3 µM in test [1]; 41.3 µM in test [2]; 76.2 µM in [3]; 32.2 µM in test [4]; 82.9 µM in [6]; 36.9 µM in test [9]. Besides, the TGI stood at 84.7 µM in test [7] and 36.9 µM in test [8].
On to `COC(=O)C(CO)NC(=O)C(CSC(c1ccccc1)(c1ccccc1)c1ccccc1)NC(=O)OCc1ccccc1` (stereo unspecified) (Cbz-Cys(Trt)-Ser-OMe; configuration not given here), for which the TGI in [1] is 28.6 µM; in test [2], 31.3 µM; in test [3] it was more than 52.9 µM; in test [4], 28.5 µM; in test [5], 42.1 µM; in test [6], more than 66.1 µM. In addition, the TGI in test [9] turned out to be 37.3 µM; in test [7], 46.5 µM; in [8], 7.63 µM.
Consider `Nc1nncc2c1c(Br)cn2C1OC(CO)C(O)C1O` (stereo unspecified), for which the TGI in test [1], in test [2], in test [3], in test [4], in [5] and in test [6] was more than 100 µM throughout. In addition, the TGI in test [9], in test [7] and in test [8] was more than 100 µM each time.
Turning to `O=C(O/N=C1\CCCC\C1=C/c1ccccc1)c1ccc([N+](=O)[O-])cc1`, the TGI in test [1], in [3], in [4], in test [5], in [7] and in test [8] was more than 100 µM throughout.
Take `Cc1ccc(NC(=O)CCCC(=O)CC(=O)c2ccc(Br)cc2)cc1`: the TGI in test [1], in test [2], in [3], in [4], in test [5] and in test [6] was more than 100 µM in each case. For the same compound, the TGI in [9], in [7] and in [8] was more than 100 µM in each case.
For `O=C1c2ccccc2C(=O)c2cc3c(cc21)CS(=O)C3`, the TGI in test [1], in test [2], in [4], in [6], in test [9] and in test [7] was more than 100 µM in each case. The compound further came in with a TGI in test [8] of more than 100 µM.
On to `O=C1C(c2ccccc2)=C(c2ccccc2)C(c2ccc(Cc3ccc(C4=C(c5ccccc5)C(=O)C(c5ccccc5)=C4c4ccccc4)cc3)cc2)=C1c1ccccc1`, for which the TGI in test [1], in test [2], in test [3], in test [4], in [5] and in test [6] was more than 100 µM in each case. Moreover, the TGI in test [9], in [7] and in test [8] was more than 100 µM throughout.
As for `Cc1ccc(NC(=O)CCc2nc(=S)[nH][nH]2)cc1`, the TGI in [1], in test [2], in test [3], in test [4], in test [5] and in [6] was more than 100 µM in each case. In addition, the TGI in test [9], in test [7] and in test [8] was more than 100 µM in each case.
For the compound `N#CCCn1[nH]c(=O)c(Cl)c(Cl)c1=O`, the TGI in test [1] came out at 26.7 µM; in [2], 32.1 µM; in test [3] it was 24.6 µM; in [4], 34.7 µM; in test [5] it was 29.1 µM; in test [6] it was 68.4 µM. This compound also displayed a TGI in test [9] of 33.6 µM.
On to `CCOC(=O)C(C)(NC(=O)c1ccc(NCc2ccc3nc(NC(=O)c4ccccc4)nc(NC(=O)c4ccccc4)c3c2)cc1)C(=O)OCC`, for which the TGI in [1] is 22.1 µM; in test [3] it was more than 100 µM; in [4], 34.9 µM; in test [5] it was 24 µM; in [6] it was 48.9 µM; in test [9], 63.3 µM. Moreover, the TGI in test [7] was 31.2 µM.
Regarding `COC1C2C[C@@H](O)CCC2C(C(=O)OCCl)C[C@H]1O` (stereo partly specified), the TGI in [1], in test [2], in test [3], in [4], in [5] and in test [6] was more than 100 µM throughout. For the same compound, the TGI in test [9], in [7] and in [8] was more than 100 µM each time.
Turning to `Nc1nnc2c(-c3ccccc3)[nH]nc2n1`, the TGI in test [1], in [2], in [3], in test [4], in [5] and in test [6] was more than 100 µM in each case. In [8], this compound came in with a TGI of more than 100 µM.
Consider `O=C(c1ccc(O)cc1O)C1C(c2ccc(O)cc2)OC(c2ccc(O)cc2)C1C(=O)c1ccc(O)cc1O` (stereo unspecified), for which the TGI in [1] is 40 µM; in test [2], more than 100 µM; in test [4], 76.9 µM; in [6], 49.8 µM; in test [7] it was 22.9 µM.
